Six molecules from patent US5849751A, “Amides and sulphonamides of benzylamines having heterocyclic substituents” (Bayer Aktiengesellschaft, priority 1995, dated 1998) can be followed below.

This test relates to release of apoB-100-associated lipoproteins from liver cells (HepG2). Nature of the test: Inhibition of the release of apoB-100-associated lipoproteins (HepG2 cells, immunoassay). It is filed as cell-based. The conditions noted are these: Homo sapiens; HepG2 culture supernatant, anti-LDL immunoassay, light absorption at 450 nm vs solvent control. Here is the method:
1. Inhibition of the release of apoB-100-associated lipoproteins
The test for detection of the inhibition of the release of apoB-100-associated lipoproteins from liver cells was carried out in vitro with cultured liver cells, preferably with cells of the human line HepG2. These cells are cultured under standard conditions in a medium for the culture of eukaryotic cells, preferably in RPMI 1640 with 10% foetal calf serum. HepG2 cells synthesize and secrete into the culture supernatant apoB-100-associated lipoprotein particles, which in principle are similar in structure to the VLDL and LDL particles to be found in plasma.
These particles can be detected with an immunoassay for human LDL. This immunoassay is carried out with antibodies which had been induced in the rabbit against human LDL under standard conditions. The anti-LDL antibodies (rab-anti-LDL- ab) were purified by affinity chromatography on an immunosorbent with human LDL. These purified rab-anti-LDL-ab are adsorbed onto the surface of a plastic. This adsorption is expediently carried out onto the plastic surface of microtitre plates with 96 wells, preferably on MaxiSorp plates. If apoB-100-associated particles are present in the supernatant of Hep-G2 cells, these can bind to the insolubilized rab-anti-LDL-ab, and an immune complex bonded to the plastic surface is formed. Non-bound proteins are removed by washing. The immune complex on the plastic surface is detected with monoclonal antibodies which have been induced against human LDL and purified under standard conditions. These antibodies were conjugated with the enzyme peroxidase. Peroxidase converts the colourless substrate TMB into a coloured product in the presence of H2 O2. After acidification of the reaction mixture with H2 SO4, the specific adsorption of light at 450 nm is determined, this being a measure of the amount of apoB-100-associated particles which have been secreted into the culture supernatant by the HepG2 cells.
The IC50 value indicates the concentration of substance at which the adsorption of light is inhibited by 50% compared with the control (solvent control without substance).
In turn, `Cc1cc(C)c2c3ccccc3n(Cc3ccc(C(N)C4CCCC4)cc3)c2n1` (racemic) [Example 1, 9-{4-[1-(R,S1-Amino-1-cyclopentyl-methyl]phenyl-methyl}-2,4-dimethyl-(α-carboline] registered a 50% inhibitory concentration (IC50) above 2 µM.

The molecule `Cc1cc(C)c2c3ccccc3n(Cc3ccc(C(NC(=O)C(O)c4ccccc4)C4CCCC4)cc3)c2n1` (racemic) [Example 18, 9-{4-[1-(R,S)-1-(2-(R,S)-2-Phenyl-2-hydroxy-acetyl)amino-1-cyclopentyl-methyl]phenyl-methyl}-2,4-dimethyl-α-carboline] showed an IC50 of 0.039 µM.

The molecule `Cc1cc(C)c2c3ccccc3n(Cc3ccc(C(NC(=O)C(=NO)c4ccccc4)C4CCCC4)cc3)c2n1` (racemic) [Example 24, 9-{4-[1-(R,S)-1-(2-(E,Z)-2-hydroxyimino-2-phenyl-acetyl)amino-1-cyclopentyl-methyl]phenyl-methyl}-2,4-dimethyl-α-carboline] registered a 50% inhibitory concentration (IC50) of 0.3 µM.

Regarding `Cc1cc(C)c2c3ccccc3n(Cc3ccc(C(NS(=O)(=O)Cc4ccccc4)C4CCCC4)cc3)c2n1` (stereo not drawn) [Example 3], the midpoint of inhibition, the IC50, lay at 0.46 µM.

As to `Cc1cc(C)c2c3ccccc3n(Cc3ccc(C(NC(=O)Cc4ccccc4)C4CCCC4)cc3)c2n1` (stereo not drawn) [Example 4], the half-maximal inhibitory concentration (IC50) was determined as 0.034 µM.

`COc1ccc(CC(=O)NC(c2ccc(Cn3c4ccccc4c4c(C)cc(C)nc43)cc2)C2CCCC2)cc1` (stereo not drawn) [Example 5] gave an IC50 of 0.038 µM.

The term IC50 denotes the concentration at which inhibition is half-maximal. Lower therefore signals inhibition by little substance.
